Experimental data from patent US20160120802A1, “ORALLY-DISINTEGRATING OSELTAMIVIR TABLET AND METHOD FOR PREPARING THE SAME” (priority 2013, published 2016).

System: pigeons
Experiment: Pigeons vomiting model
Conditions: intragastric, equivalent to 30 mg oseltamivir per kg
Method: 1. Experimental Animal: Healthy Pigeons (Both Males and Females were Operable), 350±50 g of Weights, Common Grades, and Purchased from a Breeding Base.
70 healthy pigeons were randomly divided into 7 groups and adaptively fed with normal diets for 1 week before the experiment. Diets were prohibited within 4 hrs before the experiment, the room temperature was maintained at between 22 and 24° C., and the feeding environment was kept clean and well ventilated. The pigeons were administered with drugs according to the following groups, the administration dosage corresponded to 30 mg oseltamivir per kg of the pigeon's weight, or the equivalent amount of the starch.
Contrast group A, one group, administered with the raw material of oseltamivir with a dosage equivalent to 30 mg of oseltamivir per kg of the pigeon's weight.
Contrast group B, one group, administered with the polyacrylic acid resin IV with a dosage equivalent to 30 mg of the starch per kg of the pigeon's weight.
Contrast group D, one group, administered with the commercial oseltamivir phosphate capsules manufactured by Roche with a dosage equivalent to 30 mg of oseltamivir per kg of the pigeon's weight.
Observation indexes: latent periods of vomiting (the period from the administration to the first vomiting), vomiting times (occurrences of the vomiting after the drug administration, each occurrence of the vomiting refers to the duration from neck stretching, mouth opening, shrugging, and abdominal contraction of the pigeons to recovery of the quiet state of the pigeons), and vomiting frequencies (referring to the times of neck stretching, mouth opening, shrugging, and abdominal contraction of the pigeons).
The pigeons in each group were taken drugs by intragastric administration with a dosage equivalent to 30 mg of oseltamivir per kg of the pigeon's weight. The latent periods of vomiting (min) after the intragastric administration, as well as the vomiting times and the vomiting frequency in 5 hrs after the intragastric administration were recorded.
In each group, the number of the vomiting pigeons (n) was calculated. For the vomiting pigeons (including vomiting with vomitus and dry vomiting in the absence of vomitus), the latent period of vomiting (min, x±s), the average vomit times, and the average vomit frequencies were calculated, and results were listed in the following table 2.

CCOC(=O)C1=CC(OC(CC)CC)C(NC(C)=O)C(N)C1 (stereo not shown) [Contrast group A]
Note (kind of vomiting): Seven times of vomiting | Latent period for vomiting (vomiting pigeons, x ± s): 18.9 ± 5.4 min | Average vomiting times (within 5 hrs) (within 5 hrs): 11.1 | Vomiting frequencies (within 5 hrs, x ± s): 15.8 ± 2.1 times
